Data from patent US20090305225A1, “Inhibition of Creatine Uptake to Promote Weight Loss” (priority 2005, published 2009).

System: creatine transporter mRNA
Experiment: In situ hybridization of creatine transporter mRNA in rat brain
Type: in vivo
Conditions: 48 hours after icv 0.4 um/kg; arcuate, dorsomedial, ventromedial, third ventricle, paraventricular thalamic, habenular areas; FIG. 6
Excerpt: At least 3 rats per group were used for each individual probe. Brains were dissected as described above and were cut vertically to remove the anterior portion at the optic chiasm and the posterior portion at the interpeduncular fossa so that the remaining blocks included the whole hypothalamus with a small additional margin of adjacent tissue. The blocks were immediately frozen on foil on dry ice, then stored at −80 degrees C. Blocks were sectioned in a cryostat (Micron HM500O) at −20 degrees C. and at a thickness of 13 microns. The slides were fixed in 4% paraformaldehyde for 5 minutes and acetylated in 1.3% triethanolamine and 0.5% acetic anhydride, pH 8.0 for 5 minutes. […] After air drying, the slides were ready to use.
For preparation of radiolabeled riboprobes, the DNA fragments containing the creatine transporter insert and a T7 or SP6 phage promoter sequence in each side were produced from cloning vectors (pCRII-TOPO, Invitrogene; PCR-TRAP, GenHunter) either by restriction endonuclease digestion or by PCR amplification. […] The cpm value was determined by counting in a liquid scintillation spectrometer. […]
For dipping and developing in situ slides, Kodak NTB-2 emulsion was diluted (1:1) using ddH2O and warmed to 40 degrees C. in a dark room. […] Slides were observed under dark-field microscopy (Olympus, Tokyo, Japan) and silver grains in regions of interest were assessed. […]

C=Cc1c(C)c2cc3[nH]c(cc4nc(cc5nc(cc1[nH]2)C(C)=C5CCC(=O)[O-])C(CCC(=O)[O-])=C4C)c(C)c3C=C.[Co+2] [CoPP, Cobaltic protoporphyrin IX]
CrT mRNA in situ hybridization compared to control: increased
